From ChEMBL document CHEMBL1133487, “Synthesis and biological evaluation of 2,5-dihydropyrazol” (Bioorg Med Chem Lett, 2000)

What was measured:
[1] = biological target: Phosphodiesterase 4 (Homo sapiens, UniProt P27815+Q08499+Q07343+Q08493); test: Inhibitory potency against guinea pig ventricular phosphodiesterase 4; format: protein assay, Cavia porcellus; details: target entry is the homologue from another species
[2] = biological target: Phosphodiesterase 3 (Homo sapiens, UniProt Q14432+Q13370); test: Inhibitory potency against guinea pig ventricular phosphodiesterase 3; format: protein assay, Cavia porcellus; details: target entry is the homologue from another species
[3] = system: Cavia porcellus; test: Inhibition of histamine induced bronchoconstriction in guinea pig after intravenous administration; format: functional
[4] = system: Canis familiaris; test: Minimum emetic dose in dogs after peroral administration; format: functional, Canis lupus familiaris
[5] = system: Cavia porcellus; test: Inhibition of Eosinophilia after peroral administration at 10 mg/Kg compound in guinea pig; format: functional; details: po
[6] = system: Canis familiaris; test: Minimum emetic dose in dogs after intravenous administration; format: functional, Canis lupus familiaris

O=c1c2cn(Cc3ccccc3)c3ccccc3c-2nn1C1CCCC1
IC50 [1]: 0.7 µM | IC50 [2]: 26 µM

CCCCn1nc2c3ccccc3n(Cc3cccc(Cl)c3)cc-2c1=O
IC50 [1]: 2.3 µM | ED50 [3]: 0.062 mg/kg | Dose [4]: >10 mg/kg | IC50 [2]: > 20 µM | inhibition in vivo at 10 mg/kg [5]: 53%

O=c1[nH]nc2c3ccccc3n(Cc3ccccc3)cc1-2
IC50 [1]: 37 µM | IC50 [2]: 48 µM

CCCCn1nc2c3ccccc3n(Cc3ccccc3)cc-2c1=O
Dose [6]: >3 mg/kg | IC50 [1]: 2.1 µM | ED50 [3]: > 0.1 mg/kg | IC50 [2]: 31 µM | inhibition in vivo at 10 mg/kg [5]: 52%

O=c1c2cn(Cc3ccccc3)c3ccccc3c-2nn1C1CC2CCC1C2 (configuration not stated)
IC50 [1]: 1.4 µM | IC50 [2]: > 20 µM

O=c1c2cn(Cc3ccccc3)c3ccccc3c-2nn1CC1CCCCC1
IC50 [1]: 24 µM | IC50 [2]: 102 µM

O=c1c2cn(Cc3ccccc3)c3ccccc3c-2nn1CC1CCC1
IC50 [1]: 0.8 µM | IC50 [2]: > 200 µM

CCCCn1[nH]c2c(cnc3ccccc32)c1=O
IC50 [1]: 90 µM | IC50 [2]: 136 µM

CCCCn1nc2c3ccccc3n(Cc3cccc([N+](=O)[O-])c3)cc-2c1=O
IC50 [1]: 11 µM | IC50 [2]: > 20 µM

CC(C)(C)n1nc2c3ccccc3n(Cc3cccs3)cc-2c1=O
IC50 [1]: 0.8 µM | IC50 [2]: > 20 µM

O=c1c2cn(CC3CCCCC3)c3ccccc3c-2nn1C1CCCC1
IC50 [1]: 0.4 µM | IC50 [2]: > 20 µM

CC(C)(C)n1nc2c3ccccc3n(CC3CCCCC3)cc-2c1=O
IC50 [1]: 0.5 µM | IC50 [2]: > 20 µM

CCCCn1nc2c3ccccc3n(CCc3ccccc3)cc-2c1=O
IC50 [1]: 160 µM | IC50 [2]: > 200 µM

CCCCn1nc2c3ccccc3n(CC3CCCCC3)cc-2c1=O
Dose [6]: >1 mg/kg | IC50 [1]: 0.7 µM | ED50 [3]: > 0.1 mg/kg | IC50 [2]: 111 µM | inhibition in vivo at 10 mg/kg [5]: 60%

CCCCn1nc2c3ccccc3n(Cc3cccc(N)c3)cc-2c1=O
IC50 [1]: 12 µM | IC50 [2]: > 200 µM

O=c1c2cn(Cc3cccs3)c3ccccc3c-2nn1C1CCCC1
Dose [6]: >3 mg/kg | IC50 [1]: 0.4 µM | ED50 [3]: 0.083 mg/kg | IC50 [2]: > 20 µM | inhibition in vivo at 10 mg/kg [5]: 62%

O=c1c2cn(Cc3ccccc3)c3ccccc3c-2nn1Cc1ccccc1
IC50 [1]: 7 µM | IC50 [2]: 25 µM

COc1ccc(C2CNC(=O)C2)cc1OC1CCCC1 (configuration not stated) [ROLIPRAM]
Dose [6]: 0.03 mg/kg | ED50 [3]: 0.004 mg/kg | inhibition in vivo at 10 mg/kg [5]: 58%

CCCCn1nc2c3ccccc3n(-c3ccccc3)cc-2c1=O
IC50 [1]: 18 µM | IC50 [2]: 68 µM

Cn1nc2c3ccccc3n(Cc3ccccc3)cc-2c1=O
IC50 [1]: 14 µM | IC50 [2]: 67 µM

CCn1c(=O)c2ccccc2n(-c2cccc([N+](=O)[O-])c2)c1=O [NITRAQUAZONE]
IC50 [1]: 0.05 µM | IC50 [2]: > 200 µM

CCn1nc2c3ccccc3n(Cc3ccccc3)cc-2c1=O
IC50 [1]: 3 µM | IC50 [2]: 10 µM

CCCCCn1nc2c3ccccc3n(Cc3ccccc3)cc-2c1=O
IC50 [1]: 6.4 µM | IC50 [2]: 120 µM

CCCCn1nc2c3ccccc3n(Cc3cccs3)cc-2c1=O
IC50 [1]: 2.7 µM | ED50 [3]: 0.037 mg/kg | Dose [4]: >10 mg/kg | IC50 [2]: > 20 µM | inhibition in vivo at 10 mg/kg [5]: 56%

CC(C)n1nc2c3ccccc3n(Cc3ccccc3)cc-2c1=O
IC50 [1]: 1.2 µM | IC50 [2]: 86 µM

CC(C)(C)n1nc2c3ccccc3n(Cc3ccccc3)cc-2c1=O
IC50 [1]: 2.1 µM | Dose [4]: >10 mg/kg | IC50 [2]: > 100 µM | inhibition in vivo at 10 mg/kg [5]: 51%

O=c1c2cn(Cc3ccccc3)c3ccccc3c-2nn1CCc1ccccc1
IC50 [1]: 10 µM | IC50 [2]: > 100 µM
